Measurements published in patent US8809341B2, “2,4-pyrimidinediamine compounds and uses as anti-proliferative agents” (Rigel Pharmaceuticals, Inc., priority 2003, dated 2014).
Where two headings read alike, the source gives them in different places. Blank lines part the entries; values can stand above or below the compound they belong to.

Legend:
Format in all cases: cell-based
H1299 cells = assay: in vitro antiproliferation assay, H1299 (lung)
How it was run: (§1)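 Standard in vitro antiproliferation assays on tumour cell lines, including A549 and H1299 (both lung); IC50 values determined.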

HUVEC = assay: in vitro antiproliferation assay, HUVEC (primary endothelial)
Description: (§2) The IC50 values of various compounds against a various different tumor cell lines were determined using standard in vitro antiproliferation assays. The tumor cell lines tested were as follows: A549 (lung); H1299 (lung), ACHN (kidney/p53 wt), CAKI (renal cell carcinoma), NCI-H460 (lung); HCT116 (colon/p53w0; HELA (cervix/p53 wt), HUH7 (liver/p53 wt), HUVEC (primary endothelial), LNCAP (prostate), HT-29 (colon); MCF-7 (breast); MCF-7 (breast/ER positive), MDA MB435S (breast); MDA MB231 (breast/ER negative), DU145 (prostate); BxPC-3 (pancreatic); SKOV-3 (ovarian); HepG2 (hepatic), NDHF primary normal human dermal fibroblast), SKMEL28 (breast/p53mut), SKMEL5 (breast/p53 wt), U20S (bone) and PC3 (prostate). […] A blank indicates the specified compound was not tested against the specified cell line.
(§3) Many of the compounds were tested against other cell lines. Their activity is reported in TABLE 15, below, where +”, “−”, “−/+” or “+/−” values are as described for TABLES 1-14. Where the cell line includes a value in a parenthetical, the value indicates the seeding density at which the assay was performed

HCT116 = assay: in vitro antiproliferation assay, HCT116 (colon); conditions: HCT116 (colon); read-out: HCT116
Description: as §2, §3

U20S = assay: in vitro antiproliferation assay, U20S (bone)
Description: as §2, §3

A549 cells = assay: in vitro antiproliferation assay, A549 (lung)
How it was run: as §1

PC3 = assay: in vitro antiproliferation assay, PC3 (prostate)
Description: as §2, §3

HELA = assay: in vitro antiproliferation assay, HELA (cervix/p53 wt)
Description: as §2, §3

SKMEL5 = assay: in vitro antiproliferation assay, SKMEL5
Description: as §2, §3

ACHN = assay: in vitro antiproliferation assay, ACHN (kidney/p53 wt)
Description: as §2, §3

MDA MB231 = assay: in vitro antiproliferation assay, MDA MB231 (breast/ER negative)
Description: as §2, §3

SKMEL28 = assay: in vitro antiproliferation assay, SKMEL28 (breast/p53mut)
Description: as §2, §3

MCF-7 = assay: in vitro antiproliferation assay, MCF-7 (breast/ER positive)
Description: as §2, §3

CAKI = assay: in vitro antiproliferation assay, CAKI (renal cell carcinoma)
Description: as §2, §3

[1] = H1299 (lung) cells, in vitro antiproliferation
[2] = A549 (lung) cells, in vitro antiproliferation
[3] = H1299 (lung) cells, antiproliferation
[4] = A549 (lung) cells, antiproliferation
[5] = IC50 class against H1299 (lung) tumor cells
[6] = IC50 class against A549 (lung) tumor cells

IC50 (H1299 cells; [1]): ≤ 20 µM
IC50 (HCT116): ≤ 20 µM
IC50 (A549 cells; [2]): ≤ 20 µM
SMILES: COc1cc(Nc2ncc(F)c(Nc3ccc(Cl)c(Cl)c3)n2)cc(OC)c1 [compound 835]
IC50 (HUVEC): ≤ 20 µM
IC50 (U20S): ≤ 20 µM

IC50 (H1299 cells; [1]): ≤ 20 µM
IC50 (PC3): > 20 µM
IC50 (A549 cells; [2]): > 20 µM
SMILES: CCOC(=O)COc1cccc(Nc2nc(Nc3cccc(O)c3)ncc2F)c1 [compound 763]

IC50 (HELA): ≤ 20 µM
IC50 (SKMEL5): ≤ 20 µM
IC50 (H1299 cells; [1]): ≤ 20 µM
IC50 (ACHN): ≤ 20 µM
IC50 (SKMEL28): ≤ 20 µM
IC50 (HCT116): ≤ 20 µM
IC50 (A549 cells; [2]): ≤ 20 µM
SMILES: COc1ccc(Nc2nc(Nc3cccc(-c4ncco4)c3)ncc2F)cc1OC [compound 858]
IC50 (MDA MB231; MDA-MB-231, seeding density 2K, read-out: MDA-MB-231(2K)): ≤ 20 µM
IC50 (MDA MB231; MDA-MB-231, seeding density 4K, read-out: MDA-MB-231(4K)): ≤ 20 µM
IC50 (MCF-7; MCF7, seeding density 2K, read-out: MCF7(2K)): ≤ 20 µM
IC50 (MCF-7; MCF7, seeding density 4K, read-out: MCF7(4K)): ≤ 20 µM
IC50 (U20S): ≤ 20 µM

IC50 (H1299 cells; [3]): ≤ 20 µM
IC50 (A549 cells; [4]): ≤ 20 µM
SMILES: CNC(=O)COc1cccc(Nc2ncc(F)c(Nc3ccc(Cl)c(Cl)c3)n2)c1 [compound 1006]
IC50 (HUVEC): ≤ 20 µM

IC50 (SKMEL5): ≤ 20 µM
IC50 (H1299 cells; [5]): ≤ 20 µM
IC50 (ACHN): ≤ 20 µM
IC50 (CAKI): ≤ 20 µM
IC50 (SKMEL28): ≤ 20 µM
IC50 (HCT116): ≤ 20 µM
IC50 (A549 cells; [6]): ≤ 20 µM
SMILES: Fc1cnc(Nc2ccc(N3CCOCC3)cc2)nc1NC1CC1 [compound 101]

IC50 (H1299 cells; [3]): ≤ 20 µM
IC50 (PC3): ≤ 20 µM
IC50 (A549 cells; [4]): > 20 µM
SMILES: CCOC(=O)COc1cccc(Nc2ncc(F)c(Nc3cc(C)c(O)c(C)c3)n2)c1 [compound 947]

IC50 (H1299 cells; [3]): > 20 µM
IC50 (PC3): > 20 µM
IC50 (A549 cells; [4]): > 20 µM
SMILES: CC(C)(C)c1cccc(Nc2nc(Nc3cccc(OCC(=O)O)c3)ncc2F)c1 [compound 962]

IC50 (PC3): > 20 µM
IC50 (A549 cells; [2]): > 20 µM
SMILES: CNC(=O)COc1cccc(Nc2ncc(F)c(Nc3ccc(C(C)(C)C)cc3)n2)c1 [compound 748]

IC50 (H1299 cells; [3]): > 20 µM
IC50 (A549 cells; [4]): > 20 µM
SMILES: COc1cc(Nc2ncc(F)c(N(C)c3ccc(Cl)c(Cl)c3)n2)cc(OC)c1 [compound 1009]
IC50 (HUVEC): ≤ 20 µM

IC50 (H1299 cells; [3]): > 20 µM
IC50 (PC3): > 20 µM
IC50 (A549 cells; [4]): > 20 µM
SMILES: CCOC(=O)COc1cccc(Nc2nc(Nc3cccc(C(C)(C)C)c3)ncc2F)c1 [compound 955]

IC50 (H1299 cells; [1]): > 20 µM
IC50 (A549 cells; [2]): ≤ 20 µM
SMILES: Cc1cc(C)cc(Nc2ncc(F)c(Nc3ccc(Cl)c(Cl)c3)n2)c1 [compound 838]
IC50 (HUVEC): > 20 µM

IC50 (PC3): > 20 µM
IC50 (A549 cells; [4]): > 20 µM
SMILES: Cc1cc(Nc2nc(Nc3cccc(OCC(=O)N4CCOCC4)c3)ncc2F)cc(Cl)c1O [compound 954]

IC50 (PC3): ≤ 20 µM
IC50 (A549 cells; [4]): > 20 µM
SMILES: Cc1cc(Nc2nc(Nc3cccc(OCC(=O)N4CCOCC4)c3)ncc2F)cc(C)c1O [compound 948]

IC50 (PC3): > 20 µM
IC50 (A549 cells; [4]): > 20 µM
SMILES: CNC(=O)COc1cccc(Nc2nc(Nc3cccc(C(C)(C)C)c3)ncc2F)c1 [compound 956]

IC50 (SKMEL5): ≤ 20 µM
IC50 (H1299 cells; Table 7, in vitro antiproliferation, H1299 (lung) cells): ≤ 20 µM
IC50 (ACHN): ≤ 20 µM
IC50 (CAKI): ≤ 20 µM
IC50 (SKMEL28): ≤ 20 µM
IC50 (A549 cells; Table 7, in vitro antiproliferation, A549 (lung) cells): ≤ 20 µM
SMILES: CNC(=O)c1cc2cccc(Nc3ncc(F)c(Nc4cc(OC)cc(OC)c4)n3)c2[nH]1 [compound 654]

IC50 (PC3): ≤ 20 µM
IC50 (A549 cells; [2]): > 20 µM
SMILES: CC(C)(C)c1ccc(Nc2nc(Nc3cccc(OCCO)c3)ncc2F)cc1 [compound 750]

IC50 (SKMEL5): ≤ 20 µM
IC50 (H1299 cells; [5]): ≤ 20 µM
IC50 (ACHN): ≤ 20 µM
IC50 (CAKI): ≤ 20 µM
IC50 (SKMEL28): ≤ 20 µM
IC50 (HCT116): ≤ 20 µM
IC50 (A549 cells; [6]): ≤ 20 µM
SMILES: O=C(COc1cccc(Nc2ncc(F)c(NC3CC3)n2)c1)NC1CC1 [compound 102]

IC50 (PC3): > 20 µM
IC50 (A549 cells; Table 5, in vitro antiproliferation, A549 (lung) cells): > 20 µM
SMILES: CNC(=O)COc1ccc(Nc2ncc(F)c(Nc3ccc4c(c3)OCCO4)n2)cc1 [compound 501]
